Data reported in publication PMC6320874, “Inhibitory Effect of Naphthoquinone-Tryptophan Hybrid towards Aggregation of PAP f39 Semen Amyloid” (Molecules, 2018).

Experiments:
PAP f39 (PAP248-286) [1] = target: T1, PAP f39 (PAP248-286) (Homo sapiens, UniProt P15309); assay: isothermal titration calorimetry; type: binding
T1 construct: gene ACP3; synthetic 39-residue peptide fragment 248-286 (GL Biochem), N-terminal Gly, C-terminal Tyr, HFIP-pretreated monomer; 2L3H is only the docking structure of this peptide
T1 sequence (P15309 248-286): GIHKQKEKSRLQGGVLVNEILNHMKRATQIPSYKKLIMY

PAP f39 (PAP248-286) [2] = target: T1, PAP f39 (PAP248-286); assay: ThT fluorescence aggregation assay; type: biochemical; settings: PBS pH 7.3, 37 °C, 1200 rpm, 96 h; 0.44 mM PAP f39, 0.022 mM NQTrp; inhibition of fibril formation

Kd (PAP f39 (PAP248-286) [1]): 5.94 ± 1.26 µM | % amyloid inhibition at 20:1 (PAP f39:NQTrp) (PAP f39 (PAP248-286) [2]): ~ 70%
SMILES: O=C1C=C(N[C@@H](Cc2c[nH]c3ccccc23)C(=O)O)C(=O)c2ccccc21 [NQTrp]
